Experimental data: ChEMBL document CHEMBL1201862, “PubChem BioAssay data set” (2004)
Each block holds one compound with its values, some of them ahead of it. Calls of active or inactive are those of the source.

Assays:
Coagulation factor XII = molecular target: T1, Coagulation factor XII (Homo sapiens, UniProt P00748); type: functional;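 further: activated factor XIIa alpha cleaving a fluorogenic AMC peptide substrate; inhibitor potency from loss of enzyme activity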
T1 sequence (P00748 whole entry): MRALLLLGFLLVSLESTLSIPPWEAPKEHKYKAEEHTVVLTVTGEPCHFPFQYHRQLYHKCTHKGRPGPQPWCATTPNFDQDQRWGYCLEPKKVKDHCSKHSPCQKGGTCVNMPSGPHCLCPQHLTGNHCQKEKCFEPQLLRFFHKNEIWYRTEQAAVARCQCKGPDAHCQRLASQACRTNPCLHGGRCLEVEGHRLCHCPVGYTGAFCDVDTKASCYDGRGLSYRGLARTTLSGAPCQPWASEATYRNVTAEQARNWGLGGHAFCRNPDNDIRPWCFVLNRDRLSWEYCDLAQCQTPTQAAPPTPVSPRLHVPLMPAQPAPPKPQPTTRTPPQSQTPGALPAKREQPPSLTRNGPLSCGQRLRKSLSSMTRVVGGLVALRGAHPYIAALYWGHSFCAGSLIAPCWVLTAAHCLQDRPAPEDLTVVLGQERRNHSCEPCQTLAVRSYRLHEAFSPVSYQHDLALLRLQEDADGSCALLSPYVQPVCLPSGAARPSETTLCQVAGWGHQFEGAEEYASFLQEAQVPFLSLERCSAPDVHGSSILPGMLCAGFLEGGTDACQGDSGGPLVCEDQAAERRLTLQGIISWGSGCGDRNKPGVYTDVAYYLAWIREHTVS

HEK293 [1] = assay: cells; type: functional, cell-based; details: Homo sapiens
[2] = molecular target: Nucleotide-binding oligomerization domain-containing protein 2 (Homo sapiens, UniProt Q9HC29); assay: NOD2 signaling inhibitors, cell-based, luminescence, uHTS, HEK293 (AID 1566); type: functional
HEK293 [3] = assay: NOD1 signaling inhibitors, primary screen, cell-based, luminescence, uHTS (AID 1578); type: functional; details: Homo sapiens
HEK293 [4] = assay: cells; type: functional, cell-based; details: Homo sapiens; remark: listed apart in the source
HEK293 [5] = assay: NOD2 signaling inhibitors in MDP-stimulated cells, cell-based, uHTS, luminescence (AID 2001); type: functional; details: Homo sapiens
HEK293 [6] = assay: cells; type: functional, cell-based; details: Homo sapiens; remark: listed apart in the source
[7] = cytotoxicity in HEK-293T cells, dose response, cytotoxicity control for BCR NF-kB inhibitor project, luminescence, B-cell screen hits (AID 489021); type: functional, cell-based;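 further: HEK-293T cells carrying an NF-kB luciferase reporter; cells exposed to compound for about 14 hours before viability readout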
[8] = growth suppression of beta-catenin-knockout colon cells, dose response, cell-based, HCT116, human colon tumor (AID 1045); type: functional;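 further: HCT116 colon tumor cells with beta catenin knocked out; cells exposed to compound for 60 hours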
[9] = growth suppression of PTEN-null colon cells, dose response, cell-based, HCT116 PTEN knockout (AID 1047); type: functional;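 further: HCT116 colon tumor cells with PTEN knocked out; cells exposed to compound for 60 hours before readout; potency for loss of cell viability measured by luminescence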
[10] = molecular target: Voltage-dependent T-type calcium channel subunit alpha-1H (Homo sapiens, UniProt O95180); type: functional;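 further: channel activity triggered by adding a high calcium stimulation buffer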
Troponin, cardiac muscle = Troponin, cardiac muscle (Homo sapiens, UniProt P19429+P45379+P63316); assay: Fluorescence-based biochemical high throughput dose response assay for activators of the calcium sensitivity of cardiac Regulated Thin Filaments (RTF). [Related pubchem assays (depositor defined):AID493008, AID493018, AID504382, AID504383]; type: protein-complex assay
[11] = molecular target: Heat shock protein HSP 90-alpha (Homo sapiens, UniProt P07900); type: functional, organism-based

IC50 (Coagulation factor XII): > 50 µM (inactive)
SMILES: COc1ccc(-n2ncc3c(NCc4ccccn4)ncnc32)cc1

SMILES: Cc1cc(C(=O)COc2cccnc2[N+](=O)[O-])c(C)n1Cc1ccco1
IC50 (HEK293 [1]): > 20 µM (inactive)
EC50 [2]: 13.1 µM (active)
EC50 (HEK293 [3]): > 20 µM (inactive)
IC50 (HEK293 [4]): > 20 µM (inactive)
IC50 (HEK293 [5]): > 20 µM (inactive)
IC50 (HEK293 [6]): 18.2 µM (active)

SMILES: COc1ccc(NC(=O)c2cc3c(Cl)nc4ccccc4c3s2)cc1OC
IC50 [7]: > 80 µM (inactive)
EC50 [8]: 48.8 µM (active)
EC50 [9]: 58.6 µM (active)

IC50 (Coagulation factor XII): > 50 µM (inactive)
SMILES: CC12CCC(c3c(C(=O)N4CCOCC4)nn(-c4ccccc4)c31)C2(C)C (stereo not given)

EC50 [10]: 7.3 µM (active)
SMILES: O=C(c1ccccc1)c1cccc(NC(=O)c2ccc(Br)o2)c1

EC50 (Troponin, cardiac muscle): > 71.5 µM (inactive)
SMILES: N=c1n(Cc2ccccc2)c2ccccc2n1CC(O)c1ccco1 (stereo not given)

AC50 [11]: 8.04 µM (active)
EC50 [10]: 5.77 µM (active)
SMILES: Cc1ccc(CNC(=O)c2ccc(Cn3nc(C)c(Cl)c3C)o2)cc1
